Measured values published in publication PMC6350255 (Journal of medicinal chemistry, 2018).
“Also recorded” adds a separate entry of the source.

Experiments:
[1] = system: human β-cells (dispersed human pancreatic islets); format: cell-based; settings: for human β-cell proliferation in words, dose response / overall: doses of 3–30 μM
[2] = system: NFAT2-GFP nuclear translocation in R7T1 rat beta cell line; test: NFAT2 translocation assay; format: cell-based; settings: 10 μM, 24 h

Structure (SMILES) | human β-cell proliferation in words, dose response / overall [1] | human β-cell proliferation, Ki-67 immunolabeling ([1]; 10 μM, 96 h) | NFAT2 translocation to nucleus [2] | beta cell toxicity (human β-cells)
COc1ccc2c(c1)[nH]c1c(C(C)=O)nccc12 [Compound 3–2, 1-Acetyl-7-methoxy-9H-β-carboline] | comparable to that of harmine |  |  | 
COc1ccc2c(c1)[nH]c1c(Cl)nccc12 [1–5, 1-Chloro-7-methoxy-9H-β-carboline] | comparable to that of harmine |  |  | 
COc1ccc2c(c1)[nH]c1c(C)nc(CO)cc12 [2–8, (1-Methyl-7-methoxy-9H-pyrido[3,4-b]indol-3-yl)methanol] | excellent human β-cell proliferation; also recorded: caused proliferation in a dose-dependent manner; also recorded: superior human β-cell proliferation at a lower dose as compared to 2–2; also recorded: comparable to that of harmine | comparable to that of harmine | drove NFAT2 translocation | did not cause toxicity
COc1ccc2c(c1)[nH]c1c(CO)nccc12 [Compound 2–2, 1-Hydroxymethyl-7-methoxy-9H-β-carboline] |  |  | drove NFAT2 translocation | did not cause toxicity
